# In PubChem BioAssay AID192 (DTP/NCI, 2004):
# “And” between values parts separate entries of the source, which are not always exact repeats. Identical values can stand only once. Inconclusive results and toxic doses are left out.
# Tested on: BDF1 mice, B16 melanoma ip, median survival T/C
# Experiment: NCI In Vivo Anticancer Drug Screen. Data for tumor model B16 Melanoma (intraperitoneal) in B6D2F1 (BDF1) mice
# Settings: endpoint: median survival time, higher = longer survival
# Method: The antitumor activity of compounds was measured in mice bearing transplantable tumors. Survival or tumor size were measured and the results are expressed as the measurement made in the treated group (T) divided by the measurement made in the vehicle treated control group (C). The tumor model used in this assay is B16 Melanoma (intraperitoneal) in B6D2F1 (BDF1) mice
# [1] = dose: 25.0 mg/kg/injection, schedule: Q01DX009 (ip), vehicle: saline with Tween-80
# [2] = dose: 50.0 mg/kg/injection, schedule: Q01DX009 (ip), vehicle: saline with Tween-80
# [3] = dose: 100.0 mg/kg/injection, schedule: Q04DX003 (ip), vehicle: Klucel (hydroxypropylcellulose) (HPC)
# [4] = dose: 200.0 mg/kg/injection, schedule: Q04DX003 (ip), vehicle: Klucel (hydroxypropylcellulose) (HPC)
# [5] = dose: 400.0 mg/kg/injection, schedule: Q04DX003 (ip), vehicle: Klucel (hydroxypropylcellulose) (HPC)
# [6] = dose: 12.5 mg/kg/injection, schedule: Q01DX009 (ip), vehicle: saline
# [7] = dose: 25.0 mg/kg/injection, schedule: Q01DX009 (ip), vehicle: saline
structure (smiles),measurement,setting,value
O=c1nc(NC(=S)Nc2ccn(C3OC(CO)C(O)C3O)c(=O)n2)ccn1C1OC(CO)C(O)C1O (stereo unspecified),T/C,"dose: 4.0 mg/kg/injection, schedule: Q01DX009 (ip), vehicle: saline sonified",97 % of control
same,T/C,"dose: 8.0 mg/kg/injection, schedule: Q01DX009 (ip), vehicle: saline sonified",102 % of control
same,T/C,"dose: 8.0 mg/kg/injection, schedule: Q01DX009 (ip), vehicle: saline with Tween-80",95 % of control
same,T/C,"dose: 16.0 mg/kg/injection, schedule: Q01DX009 (ip), vehicle: saline sonified",100 % of control
same,T/C,"dose: 16.0 mg/kg/injection, schedule: Q01DX009 (ip), vehicle: saline with Tween-80",108 % of control
same,T/C,"dose: 32.0 mg/kg/injection, schedule: Q01DX009 (ip), vehicle: saline sonified",102 % of control
same,T/C,"dose: 32.0 mg/kg/injection, schedule: Q01DX009 (ip), vehicle: saline with Tween-80",95 % of control
same,T/C,"dose: 64.0 mg/kg/injection, schedule: Q01DX009 (ip), vehicle: saline with Tween-80",104 % of control
COc1c(OC(C)=O)cc2c(OC(C)=O)c1CC(C)CC(OC)C(O)C(C)/C=C(\C)C(OC(N)=O)C(OC)/C=C\C=C(/C)C(=O)N2 (stereo unspecified),T/C,"dose: 12.5 mg/kg/injection, schedule: Q01DX005 (ip), vehicle: other",97 % of control
same,T/C,"dose: 25.0 mg/kg/injection, schedule: Q01DX005 (ip), vehicle: other",98 % of control
same,T/C,"dose: 50.0 mg/kg/injection, schedule: Q01DX005 (ip), vehicle: other",97 % of control
same,T/C,"dose: 100.0 mg/kg/injection, schedule: Q01DX005 (ip), vehicle: other",101 % of control
same,T/C,"dose: 200.0 mg/kg/injection, schedule: Q01DX005 (ip), vehicle: other",94 % of control
CCOC(=O)N(NC(=O)c1ccccc1)C(C)=O,T/C,"dose: 6.25 mg/kg/injection, schedule: Q01DX009 (ip), vehicle: other",101 % of control
same,T/C,"dose: 12.5 mg/kg/injection, schedule: Q01DX009 (ip), vehicle: other",99 % of control
same,T/C,"dose: 25.0 mg/kg/injection, schedule: Q01DX009 (ip), vehicle: other",95 % of control
same,T/C,"dose: 50.0 mg/kg/injection, schedule: Q01DX009 (ip), vehicle: other",95 % of control
Nc1n[n+](-c2ccccc2)no1,T/C,"dose: 1.56 mg/kg/injection, schedule: Q01DX009 (ip), vehicle: water",102 % of control
same,T/C,"dose: 3.12 mg/kg/injection, schedule: Q01DX009 (ip), vehicle: water",89 % of control
same,T/C,"dose: 3.13 mg/kg/injection, schedule: Q01DX009 (ip), vehicle: water",96 % of control
same,T/C,"dose: 6.25 mg/kg/injection, schedule: Q01DX009 (ip), vehicle: water",102 % of control and 105 % of control
same,T/C,"dose: 12.5 mg/kg/injection, schedule: Q01DX009 (ip), vehicle: water",119 % of control
CCC(C#N)=C1CCCCC1,T/C,[1],102 % of control
same,T/C,[2],106 % of control
same,T/C,"dose: 100.0 mg/kg/injection, schedule: Q01DX009 (ip), vehicle: saline with Tween-80",114 % of control
CCC(=O)c1ccc(NC(C)=O)cc1,T/C,[3],102 % of control
same,T/C,[4],96 % of control
same,T/C,[5],98 % of control
O=C(O)c1cccc(S(=O)(=O)N(CCO)CCO)c1,T/C,[6],95 % of control
same,T/C,[7],97 % of control
same,T/C,[2],91 % of control
same,T/C,"dose: 50.0 mg/kg/injection, schedule: Q01DX009 (ip), vehicle: saline",92 % of control
CCN(CC)C(N)=S,T/C,[3],102 % of control
same,T/C,[4],95 % of control
same,T/C,[5],97 % of control
Cc1c(Cl)cc(Cl)c(N)c1Cl,T/C,"dose: 100.0 mg/kg/injection, schedule: Q04DX003 (ip), vehicle: saline with Tween-80",86 % of control
same,T/C,"dose: 200.0 mg/kg/injection, schedule: Q04DX003 (ip), vehicle: saline with Tween-80",93 % of control
same,T/C,"dose: 400.0 mg/kg/injection, schedule: Q04DX003 (ip), vehicle: saline with Tween-80",90 % of control
CCC[CH2][Sn]1([CH2]CCC)[O]OC(c2ccc(OC)cc2)[O]1 (stereo unspecified),T/C,"dose: 3.12 mg/kg/injection, schedule: Q01DX009 (sc), vehicle: olive oil, sesame oil, peanut oil",93 % of control
CCCN(C)/N=N/c1[nH]ncc1C(N)=O,T/C,"dose: 17.0 mg/kg/injection, schedule: Q01DX009 (ip), vehicle: saline with Tween-80",114 % of control
same,T/C,"dose: 37.0 mg/kg/injection, schedule: Q01DX009 (ip), vehicle: saline with Tween-80",111 % of control
same,T/C,[2],121 % of control
Cc1ccc(NC(=O)c2ccc(C(=O)Nc3ccc(C)cc3)cc2)cc1,T/C,"dose: 12.5 mg/kg/injection, schedule: Q01DX009 (ip), vehicle: saline with Tween-80",117 % of control
same,T/C,[1],93 % of control
same,T/C,[2],100 % of control
CCc1cc(Cc2cc(CC)cc(C(C)(C)C)c2O)c(O)c(C(C)(C)C)c1,T/C,"dose: 100.0 mg/kg/injection, schedule: Q01DX009 (ip), vehicle: Klucel (hydroxypropylcellulose) (HPC)",88 % of control
same,T/C,"dose: 200.0 mg/kg/injection, schedule: Q01DX009 (ip), vehicle: Klucel (hydroxypropylcellulose) (HPC)",88 % of control
same,T/C,"dose: 400.0 mg/kg/injection, schedule: Q01DX009 (ip), vehicle: Klucel (hydroxypropylcellulose) (HPC)",89 % of control
O=C1N[C@@H]([C@H]2CC[C@H](Cl)CN2)C(=O)N[C@H]1[C@H]1CC[C@H](Cl)CN1,T/C,"dose: 0.05 mg/kg/injection, schedule: Q01DX009 (ip), vehicle: saline",107 % of control
same,T/C,"dose: 0.1 mg/kg/injection, schedule: Q01DX009 (ip), vehicle: saline",116 % of control
same,T/C,"dose: 0.5 mg/kg/injection, schedule: Q04DX003 (ip), vehicle: saline",103 % of control
same,T/C,"dose: 1.0 mg/kg/injection, schedule: Q01DX001 (ip), vehicle: saline",115 % of control
same,T/C,"dose: 1.0 mg/kg/injection, schedule: Q04DX003 (ip), vehicle: saline",119 % of control
same,T/C,"dose: 1.25 mg/kg/injection, schedule: Q01DX001 (ip), vehicle: saline",119 % of control
same,T/C,"dose: 2.0 mg/kg/injection, schedule: Q01DX001 (ip), vehicle: saline",120 % of control
same,T/C,"dose: 2.0 mg/kg/injection, schedule: Q04DX003 (ip), vehicle: saline",124 % of control
same,T/C,"dose: 2.5 mg/kg/injection, schedule: Q01DX001 (ip), vehicle: saline",114 % of control
same,T/C,"dose: 10.0 mg/kg/injection, schedule: Q01DX009 (ip), vehicle: alkali diluted with saline",30 % of control
same,T/C,"dose: 16.0 mg/kg/injection, schedule: Q01DX001 (ip), vehicle: saline",154 % of control
same,T/C,"dose: 20.0 mg/kg/injection, schedule: Q01DX009 (ip), vehicle: alkali diluted with saline",30 % of control
same,T/C,"dose: 40.0 mg/kg/injection, schedule: Q01DX009 (ip), vehicle: alkali diluted with saline",27 % of control
same,T/C,"dose: 80.0 mg/kg/injection, schedule: Q01DX009 (ip), vehicle: alkali diluted with saline",16 % of control
COc1cccc2c1C(=O)c1c(O)c3c(c(O)c1C2=O)C[C@@](O)(/C(C)=N/NC(=O)c1ccc(Cl)cc1)C[C@@H]3OC1CC(N)C(O)C(C)O1 (stereo partly specified),T/C,"dose: 1.0 mg/kg/injection, schedule: Q01DX009 (ip), vehicle: suspension in saline",155 % of control
same,T/C,"dose: 2.0 mg/kg/injection, schedule: Q01DX009 (ip), vehicle: suspension in saline",188 % of control
same,T/C,"dose: 2.5 mg/kg/injection, schedule: Q01DX001 (ip), vehicle: saline with Tween-80",155 % of control
same,T/C,"dose: 2.5 mg/kg/injection, schedule: Q01DX001 (ip), vehicle: water",121 % of control
same,T/C,"dose: 4.0 mg/kg/injection, schedule: Q01DX009 (ip), vehicle: suspension in saline",193 % of control
same,T/C,"dose: 5.0 mg/kg/injection, schedule: Q01DX001 (ip), vehicle: saline with Tween-80",204 % of control
same,T/C,"dose: 5.0 mg/kg/injection, schedule: Q01DX001 (ip), vehicle: water",279 % of control
same,T/C,"dose: 8.0 mg/kg/injection, schedule: Q01DX009 (ip), vehicle: suspension in saline",322 % of control
same,T/C,"dose: 10.0 mg/kg/injection, schedule: Q01DX001 (ip), vehicle: saline with Tween-80",196 % of control
same,T/C,"dose: 10.0 mg/kg/injection, schedule: Q01DX001 (ip), vehicle: water",154 % of control and 300 % of control
same,T/C,"dose: 20.0 mg/kg/injection, schedule: Q01DX001 (ip), vehicle: saline with Tween-80",280 % of control
same,T/C,"dose: 20.0 mg/kg/injection, schedule: Q01DX001 (ip), vehicle: water",235 % of control
same,T/C,"dose: 40.0 mg/kg/injection, schedule: Q01DX001 (ip), vehicle: saline with Tween-80",205 % of control
C=CCOCC(O)CN(C)CCCC (stereo unspecified),T/C,"dose: 50.0 mg/kg/injection, schedule: Q04DX003 (ip), vehicle: saline",108 % of control
same,T/C,"dose: 100.0 mg/kg/injection, schedule: Q04DX003 (ip), vehicle: saline",108 % of control
CN(C)CCC1(c2ccccc2)C=Cc2ccccc21 (stereo unspecified),T/C,"dose: 3.12 mg/kg/injection, schedule: Q01DX009 (ip), vehicle: saline",108 % of control
same,T/C,"dose: 6.25 mg/kg/injection, schedule: Q01DX009 (ip), vehicle: saline",102 % of control
same,T/C,[6],108 % of control
same,T/C,[7],95 % of control
